We go through 15 compounds from patent US20240083898A1, “TRICYCLIC TRIAZOLO COMPOUNDS AS DGK INHIBITORS” (Incyte Corporation, priority 2022, published 2024).

For one assay, the target named is T1, DGKα (Homo sapiens, UniProt P23743).
T1 construct: His; purchased Signal Chem D21-10BH
The assay can be described thus: In vitro DGKα inhibition assay (ADP-Glo). The format is biochemical. Conditions: His-tagged human recombinant enzyme, 0.1 nM DGKα, 50 μM ATP, 20 μM DLG, 90 minute incubation. As for the experimental part: (§1) The DGKα and DGKζ biochemical reactions were performed using His-tagged human recombinant enzymes (Signal Chem, DGKα, #D21-10BH; DGKζ, #D30-10H)) and DLG (Dilauroyl-sn-glycerol) lipid substrate (Signal Chem, #D430-59). ADP-Glo assay was performed using ADP-Glo™ kinase Assay kit (Promega, #V9104). The reactions were carried out in assay buffer containing 40 mM Tris, pH 7.5, 0.1% CHAPS, 0.1% Prionex, 40 mM NaCl, 5 mM MgCl2, 1 mM CaCl2, and 1 mM DTT. DGKα reactions contained 0.1 nM DGKα, 50 μM ATP, and 20 μM DLG. And DGKζ reactions contained 0.4 nM DGKζ, 30 μM ATP, and 20 μM DLG.
(§2) For compound inhibition studies, 40 nL test compound in DMSO was added to wells of white polystyrene plates in 384-well (Greiner, #784075) or 1536-well format (Greiner, #782075). Compounds were added with top concentration of 2 mM with 11 point, 3-fold dilution series. Enzyme solution (contains 2× DGK enzyme concentration in 1× assay buffer) was added to the plate in 2 μL/well volume, followed by 2 μL/well of substrate solution (contains 2× concentration of ATP and DLG substrate in 1× assay buffer). Plates were then centrifuged for 1 min at 1200 RPM and sealed or lidded. For 4 μL reaction volume, test compounds were therefore diluted 100× to final top concentration of 20 μM. After 90 minute incubation, reactions were quenched by addition of 2 μL/well Promega ADP-Glo Reagent, followed by centrifugation and lidding. After 60 min incubation, 2 μL/well Promega Kinase Detection Reagent was added, plates centrifuged, and incubated for 30 min. Plates were then read using Luminescence method on BMG PHERAstar FSX plate reader. Percent inhibition was calculated and IC50s were determined using 4-parameter fit in Genedata Screener. Labcyte Echo acoustic dispenser was used for compound addition, and Formulatrix Tempest liquid handler was used for all reagent dispenses.

The next assay addresses T2, DGKζ (Homo sapiens, UniProt Q13574).
T2 construct: His; purchased Signal Chem D30-10H
The experiment in a line: In vitro DGKζ inhibition assay (ADP-Glo). Conditions: His-tagged human recombinant enzyme, 0.4 nM DGKζ, 30 μM ATP, 20 μM DLG, 90 minute incubation. In kind it is biochemical. As for the experimental part: as §1, §2
A general note: In ADP-Glo the light output rises with the ADP produced.

T2 sequence (Q13574 whole entry): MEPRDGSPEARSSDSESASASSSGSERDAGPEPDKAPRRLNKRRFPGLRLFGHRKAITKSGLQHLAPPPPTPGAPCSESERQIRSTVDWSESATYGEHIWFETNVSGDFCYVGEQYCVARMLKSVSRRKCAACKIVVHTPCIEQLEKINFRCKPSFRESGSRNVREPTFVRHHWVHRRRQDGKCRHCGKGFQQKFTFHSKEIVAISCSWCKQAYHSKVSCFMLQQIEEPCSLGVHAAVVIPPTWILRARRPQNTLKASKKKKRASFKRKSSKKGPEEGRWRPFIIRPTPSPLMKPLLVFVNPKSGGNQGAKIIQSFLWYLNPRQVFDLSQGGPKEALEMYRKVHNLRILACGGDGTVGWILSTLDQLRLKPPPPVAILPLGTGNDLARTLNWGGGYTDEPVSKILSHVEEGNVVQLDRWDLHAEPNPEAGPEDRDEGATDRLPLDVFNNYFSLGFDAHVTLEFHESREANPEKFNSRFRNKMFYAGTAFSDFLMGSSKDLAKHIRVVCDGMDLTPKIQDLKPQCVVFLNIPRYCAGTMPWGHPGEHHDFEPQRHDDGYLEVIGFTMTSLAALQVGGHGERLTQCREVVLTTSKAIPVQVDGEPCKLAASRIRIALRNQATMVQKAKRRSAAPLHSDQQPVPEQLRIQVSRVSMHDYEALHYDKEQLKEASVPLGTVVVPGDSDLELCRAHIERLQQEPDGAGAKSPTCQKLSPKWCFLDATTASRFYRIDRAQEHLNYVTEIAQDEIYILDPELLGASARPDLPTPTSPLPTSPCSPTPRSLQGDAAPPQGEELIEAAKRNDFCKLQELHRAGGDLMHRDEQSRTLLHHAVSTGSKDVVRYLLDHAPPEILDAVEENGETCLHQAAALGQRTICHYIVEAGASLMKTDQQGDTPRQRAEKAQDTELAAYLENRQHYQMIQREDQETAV
T1 sequence (P23743 whole entry): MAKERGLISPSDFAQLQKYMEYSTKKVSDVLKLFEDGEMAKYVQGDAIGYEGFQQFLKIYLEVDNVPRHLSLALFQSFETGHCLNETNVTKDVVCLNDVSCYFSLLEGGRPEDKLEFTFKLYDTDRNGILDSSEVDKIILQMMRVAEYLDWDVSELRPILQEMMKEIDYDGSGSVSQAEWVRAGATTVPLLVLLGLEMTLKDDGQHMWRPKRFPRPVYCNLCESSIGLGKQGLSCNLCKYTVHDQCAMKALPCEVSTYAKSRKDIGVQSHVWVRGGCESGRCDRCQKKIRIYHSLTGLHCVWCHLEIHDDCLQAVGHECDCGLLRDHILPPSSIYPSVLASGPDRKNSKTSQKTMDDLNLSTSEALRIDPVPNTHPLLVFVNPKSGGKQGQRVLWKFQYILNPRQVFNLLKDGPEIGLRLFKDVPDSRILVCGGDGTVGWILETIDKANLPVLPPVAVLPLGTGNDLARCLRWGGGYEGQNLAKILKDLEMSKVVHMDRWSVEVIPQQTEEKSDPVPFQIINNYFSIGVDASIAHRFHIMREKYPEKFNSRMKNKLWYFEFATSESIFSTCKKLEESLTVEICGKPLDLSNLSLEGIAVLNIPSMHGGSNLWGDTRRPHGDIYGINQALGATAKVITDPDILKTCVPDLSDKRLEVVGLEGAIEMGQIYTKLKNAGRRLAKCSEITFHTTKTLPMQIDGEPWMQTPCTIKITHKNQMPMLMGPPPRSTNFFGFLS

The term IC50 denotes the midpoint of a concentration-inhibition curve. On to `CC[C@H]1CN(C(c2ccc(F)cc2)c2ccc(F)cc2)[C@H](CC)CN1c1nc2nncn2c2ccc(C)nc12` [Example 1, 5-((2S,5R)-4-(Bis(4-fluorophenyl)methyl)-2,5-diethylpiperazin-1-yl)-7-methylpyrido[2,3-e][1,2,4]triazolo[4,3-a]pyrimidine], for which the IC50 on DGKα and on DGKζ was at most 20 nM throughout.

Consider `CC[C@H]1CN(C(c2ccc(F)cc2)c2ccc(F)cc2)[C@H](CC)CN1c1nc2nncn2c2cc(-c3cnn(C)c3)cnc12` [Example 6, 5-((2S,5R)-4-(Bis(4-fluorophenyl)methyl)-2,5-diethylpiperazin-1-yl)-8-(1-methyl-1H-pyrazol-4-yl)pyrido[2,3-e][1,2,4]triazolo[4,3-a]pyrimidine], for which the figures for the concentration for half-maximal inhibition (IC50) on DGKα and at DGKζ were at most 20 nM and over 2000 nM, respectively.

`CC[C@@H]1CN(c2nc3nncn3c3cccnc23)[C@@H](C)CN1C(c1ccc(F)cc1)C(C)(C)O` (single isomer, unassigned) [Example 14]: the IC50 is at most 20 nM on DGKα and 200 to 2000 nM at DGKζ.

With `CC[C@@H]1CN(c2nc3nncn3c3nccnc23)[C@@H](C)CN1C(c1ccc(F)cc1)c1ccc(F)cc1` [Example 8, 5-((2S,5R)-4-(Bis(4-fluorophenyl)methyl)-5-ethyl-2-methylpiperazin-1-yl)-[1,2,4]triazolo[4,3-a]pteridine], the half-inhibitory concentration (IC50) at DGKα and at DGKζ was at most 20 nM in each case.

Take `CC[C@@H]1CN(c2nc3nncn3c3cccnc23)[C@@H](C)CN1C(c1ccc(F)cc1)c1nc(C2CC2)no1` (mixture of isomers) [Example 9, 3-Cyclopropyl-5-(((2R,5S)-2-ethyl-5-methyl-4-(pyrido[2,3-e][1,2,4]triazolo[4,3-a]pyrimidin-5-yl)piperazin-1-yl)(4-fluorophenyl)methyl)-1,2,4-oxadiazole]: the figures for the half-inhibitory concentration (IC50) at DGKα and at DGKζ were at most 20 nM and 20 to 200 nM, respectively.

Regarding `CC[C@H]1CN(C(c2ccc(F)cc2)c2ccc(F)cc2)[C@H](CC)CN1c1nc2nncn2c2ccc(C#N)nc12` [Example 5, 5-((2S,5R)-4-(Bis(4-fluorophenyl)methyl)-2,5-diethylpiperazin-1-yl)pyrido[2,3-e][1,2,4]triazolo[4,3-a]pyrimidine-7-carbonitrile], the concentration for half-maximal inhibition (IC50) on DGKα and at DGKζ was at most 20 nM in each case.

For `CC[C@@H]1CN(c2nc3nncn3c3cccnc23)[C@@H](C)CN1Cc1cccc2ccccc12` [Example 11, 5-((2S,5R)-5-Ethyl-2-methyl-4-(naphthalen-1-ylmethyl)piperazin-1-yl)pyrido[2,3-e][1,2,4]triazolo[4,3-a]pyrimidine], the IC50 on DGKα and on DGKζ was at most 20 nM each time.

As for `CC[C@H]1CN(C(c2ccc(F)cc2)c2ccc(F)cc2)[C@H](CC)CN1c1nc2nnc(C)n2c2cccnc12` [Example 3, 5-((2S,5R)-4-(Bis(4-fluorophenyl)methyl)-2,5-diethylpiperazin-1-yl)-1-methylpyrido[2,3-e][1,2,4]triazolo[4,3-a]pyrimidine], the IC50 at DGKα and on DGKζ was at most 20 nM each time.

As for `CC[C@H]1CN(C(c2ccc(F)cc2)c2ccc(F)cc2)[C@H](CC)CN1c1nc2nncn2c2nccnc12` [Example 4, 5-((2S,5R)-4-(Bis(4-fluorophenyl)methyl)-2,5-diethylpiperazin-1-yl)-[1,2,4]triazolo[4,3-a]pteridine], the IC50 at DGKα and on DGKζ was at most 20 nM in each case.

Regarding `CC[C@@H]1CN(c2nc3nncn3c3cccnc23)[C@@H](C)CN1Cc1ccc2cc(F)ccc2n1` [Example 10, 5-((2S,5R)-5-Ethyl-4-((6-fluoroquinolin-2-yl)methyl)-2-methylpiperazin-1-yl)pyrido[2,3-e][1,2,4]triazolo[4,3-a]pyrimidine], the IC50 is at most 20 nM on DGKα and 20 to 200 nM on DGKζ.

For `CC[C@@H]1CN(c2nc3nncn3c3cccnc23)[C@@H](C)CN1C(C(=O)OC)c1ccc(F)cc1` (single isomer, unassigned) [Example 13], the 50% inhibitory concentration (IC50) at DGKα was at most 20 nM; on DGKζ, 20 to 200 nM.

As to `CC[C@H]1CN(C(c2ccc(F)cc2)c2ccc(F)cc2)[C@H](CC)CN1c1nc2nncn2c2cccnc12` [Example 2, 5-((2S,5R)-4-(Bis(4-fluorophenyl)methyl)-2,5-diethylpiperazin-1-yl)pyrido[2,3-e][1,2,4]triazolo[4,3-a]pyrimidine], the IC50 at DGKα and at DGKζ was at most 20 nM each time.

As to `CC[C@@H]1CN(c2nc3nncn3c3cccnc23)[C@@H](C)CN1C(c1ccc(F)cc1)C(C)(C)O` (single isomer, unassigned) [Example 15], the half-maximal inhibitory concentration (IC50) at DGKα and on DGKζ was 20 to 200 nM in each case.

As for `CC[C@@H]1CN(c2nc3nncn3c3cccnc23)[C@@H](C)CN1C(C(=O)OC)c1ccc(F)cc1` (single isomer, unassigned) [Example 12], the 50% inhibitory concentration (IC50) is at most 20 nM at DGKα and 20 to 200 nM on DGKζ.

Consider `CC[C@H]1CN(C(c2ccc(F)cc2)c2ccc(F)cc2)[C@H](CC)CN1c1cc2nncn2c2cccnc12` [Example 7, 5-((2S,5R)-4-(Bis(4-fluorophenyl)methyl)-2,5-diethylpiperazin-1-yl)-[1,2,4]triazolo[4,3-a][1,5]naphthyridine], for which the values for the IC50 at DGKα and at DGKζ were at most 20 nM and 20 to 200 nM, respectively.
